The text below walks through data of patent publication US11390621B2, “Chiral indole compounds and their use” (ARIAGEN, INC., priority 2019, dated 2022).

What all share (format): in vitro ADME
Series [1] can be described thus: Hepatocyte intrinsic clearance assay (metabolic stability), rat hepatocytes. The conditions noted are these: rat, cryopreserved hepatocytes, Rat Hepatocytes, 1 μM test compound. The text has this:
(§1) The liver is an important organ in the body for drug metabolism. This Example describes hepatocyte intrinsic clearance assays using both human and rat hepatocytes to evaluate the metabolic stability of the indole compounds disclosed herein. The parameters measured include t1/2 (half-life), CLint (intrinsic clearance), and EH (hepatic extraction ratio).
(§2) Testosterone (Lot FE111011-01) was obtained from Cerilliant (Round Rock, Tex.). 7-hydroxycoumarin (Lot 11631ED) was obtained from Sigma Aldrich (St. Louis, Mo.). Cryopreserved human hepatocytes pooled from ten donor males (X008001), cryopreserved male IRC/CD-1 mouse hepatocytes (M005052), INVITROGRO HI Medium (incubation), and INVITROGRO HT Medium (thawing) were obtained from Bioreclamation IVT (Baltimore, Md.). All solvents were obtained from commercial sources and used without further purification.
(§3) Each test compound was prepared as a 1 mM stock solution in DMSO. A 2 μM solution of test compound and positive controls were prepared in INVITROGRO HI Medium (incubation). These solutions were pre-warmed in a sterile incubator set to maintain 37° C., 5% CO2, and 98% humidity. Cryopreserved hepatocytes were prepared at a concentration of 2×10^6 living cells/mL in incubation media and pre-warmed in the incubator. The compound solutions and hepatocyte mixtures were then combined at a ratio of 1:1 (v:v). The final volume of the reaction mixture was 750 μL, containing 1 μM test compound (10 μM for 7-hydroxycoumarin) and […]. The reaction mixture was placed in the incubator on a plate shaker. After 0, 15, 30, 60, 90, and 120 minutes of incubation, 100 μL of reaction mixtures were removed from the incubation plate and mixed with 150 μL of ice-cold acetonitrile in a designated well of a 96-well crash plate. The 96-well crash plate was placed on ice for 15 min, and samples were centrifuged (3,600 RPM, 10 min, 4° C.) to precipitate protein. The supernatants were diluted 1:1 (v:v) with water containing 0.15 μM verapamil and/or 1 μM tolbutamide (internal standards for positive and negative modes, respectively) in a 96-well shallow injection plate. This plate was sealed for LC-MS analysis. All measurements were done in duplicate.
(§4) The residual compound remaining (% R) was determined from LC-MS peak areas by comparison to the zero time point. Metabolic half-life (t1/2) and intrinsic clearance (CLint) values were calculated from the slope of the plot of ln (% R) vs. time and the concentration of hepatocytes present in the incubation. Percent remaining at 60 minutes was calculated by plugging in the 60 minute value into the slope equation generated by the percent remaining time points.
(§5) In vivo hepatic clearance CLH was calculated using the well stirred liver model according to the following equation:
(§6) [formula] where QH is the total liver blood flow, fu is unbound fraction of the drug, and CL′int is defined as follows: CL′int=CLint×(10^6 cells/g of liver weight)×(g liver weight/kg of body weight). In the first approximation, used in this study, fu=1.
(§7) Hepatic extraction ratio EH was calculated using the following equation:
(§8) [formula] Corresponding physiological parameters used in calculations for all species are shown below in Table 3.

Series [2] deals with rat hepatocytes. The series is described as above. The note with it: Rat Hepatocytes; well stirred liver model, fu=1.
From the text: as §1, §2, §3, §4, §5, §6, §7, §8

The target of series [3] is T1, CYP1A2 (Homo sapiens, UniProt P05177).
T1 construct: from tissue; host or cells: human liver microsomes
T1 sequence (P05177 1-516): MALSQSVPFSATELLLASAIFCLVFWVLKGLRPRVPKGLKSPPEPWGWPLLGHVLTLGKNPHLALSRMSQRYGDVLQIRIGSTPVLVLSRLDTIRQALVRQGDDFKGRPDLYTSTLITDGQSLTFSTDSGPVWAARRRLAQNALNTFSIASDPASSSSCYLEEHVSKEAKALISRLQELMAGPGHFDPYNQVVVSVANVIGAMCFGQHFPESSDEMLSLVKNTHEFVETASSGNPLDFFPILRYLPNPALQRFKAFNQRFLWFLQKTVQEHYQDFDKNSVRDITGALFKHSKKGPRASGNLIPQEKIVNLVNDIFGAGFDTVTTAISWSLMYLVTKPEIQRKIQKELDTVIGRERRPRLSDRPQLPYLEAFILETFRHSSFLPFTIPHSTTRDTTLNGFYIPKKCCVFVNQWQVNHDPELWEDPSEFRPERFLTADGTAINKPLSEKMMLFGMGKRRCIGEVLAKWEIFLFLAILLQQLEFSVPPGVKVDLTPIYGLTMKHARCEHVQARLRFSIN
Kind of series: CYP profiling: human liver microsomes with CYP1A2 inhibitor furafylline. Details: % Compound Metabolized at 30 min, CYP1A2 Inhibitor: concentration or dose not given beside the values. The note with it: HLMs; for % Inhibition Relative to Negative Control, 1A2: 30 min. How it is done: (§9) In order to investigate the contributions of CYP1A2 and CYP3A4 to the metabolism of the compounds of the present disclosure, human liver microsomes were incubated with the test compounds for 30 minutes in the presence of selective chemical inhibitors furafylline (1A2) and ketoconazole (3A4).
A general note: Microsomes from liver hold many membrane-bound enzymes, among them those of drug oxidation.

Series [4] is described as follows: Hepatocyte intrinsic clearance assay (metabolic stability), human hepatocytes. The conditions noted are these: male, human, cryopreserved pooled hepatocytes, Human Hepatocytes, 1 μM test compound.
From the text: as §1, §2, §3, §4, §5, §6, §7, §8

Series [5] has as its system human hepatocytes. The description is as above. The note with it: Human Hepatocytes; well stirred liver model, fu=1.
From the text: as §1, §2, §3, §4, §5, §6, §7, §8

Series [6] addresses T2, CYP3A4 (Homo sapiens, UniProt P08684).
T2 construct: from tissue; host or cells: human liver microsomes
Kind of series: CYP profiling: human liver microsomes with CYP3A4 inhibitor ketoconazole. More on the design: % Compound Metabolized at 30 min, CYP3A4 Inhibitor: concentration or dose not given beside the values. The conditions noted are these: HLMs; for % Inhibition Relative to Negative Control, 3A4: 30 min. How it is done: as §9

Series [7] can be described thus: CYP profiling: turnover in human liver microsomes, 30 min, no inhibitor. The note with it: HLMs. More on the design: % Compound Metabolized at 30 min, No Inhibitor: concentration or dose not given beside the values. How it is done:
as §9

Where “and” joins values, the source holds several entries; their conditions need not be identical. Equal values may be shown once.

T2 sequence (P08684 whole entry): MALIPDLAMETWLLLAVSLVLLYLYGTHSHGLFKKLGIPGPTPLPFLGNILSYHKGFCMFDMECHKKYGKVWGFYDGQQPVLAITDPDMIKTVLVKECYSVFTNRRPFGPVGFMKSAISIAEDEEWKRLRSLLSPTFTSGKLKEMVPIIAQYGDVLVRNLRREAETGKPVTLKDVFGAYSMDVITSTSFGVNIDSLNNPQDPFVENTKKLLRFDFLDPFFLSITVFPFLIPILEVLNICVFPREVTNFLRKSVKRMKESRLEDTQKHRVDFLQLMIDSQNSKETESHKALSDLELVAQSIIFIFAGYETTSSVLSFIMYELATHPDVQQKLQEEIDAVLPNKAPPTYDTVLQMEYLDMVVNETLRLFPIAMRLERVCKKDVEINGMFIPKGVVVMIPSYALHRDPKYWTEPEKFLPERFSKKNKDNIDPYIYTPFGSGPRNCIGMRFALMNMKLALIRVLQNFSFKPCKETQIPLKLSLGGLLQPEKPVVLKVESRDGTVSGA

By half-life is commonly meant the time needed for the level to fall by half in the phase considered. The hepatocyte CLint is the capacity of the preparation to metabolise the compound, expressed as a volume cleared per time. Regarding `NC(c1csc(C(=O)c2c[nH]c3ccccc23)n1)C(F)(F)F` (stereo not drawn) [ARI-100], in series [1], the half-life at 1 μM is 1.3 h and the hepatocyte CLint at 1 μM was determined as 8.73 µL/min/1e6 cells. In addition, the “EH (hepatic extraction ratio)” value in series [2] was 36.9%. Further, in series [3], the “% Compound Metabolized at 30 min, CYP1A2 Inhibitor” value was determined as 0% and the “% Inhibition Relative to Negative Control, 1A2” value is 100%. For the same compound, in series [4], the half-life at 1 μM was 46.1 h and the hepatocyte CLint at 1 μM is 0.251 µL/min/1e6 cells. Further, in series [5], the “EH (hepatic extraction ratio)” value is listed as 1.9%. Moreover, in series [6], the “% Compound Metabolized at 30 min, CYP3A4 Inhibitor” value amounted to 8% and the “% Inhibition Relative to Negative Control, 3A4” value is “None”. In addition, the “% Compound Metabolized at 30 min, No Inhibitor” value in series [7] worked out at 2%.
Take `Cc1ncc2n1-c1ccc(Cl)cc1C(c1ccccc1F)=NC2` [Midazolam]: in series [3], the “% Compound Metabolized at 30 min, CYP1A2 Inhibitor” value came to 96% and the “% Inhibition Relative to Negative Control, 1A2” value stood at 2%. In series [6], the “% Compound Metabolized at 30 min, CYP3A4 Inhibitor” value is 1% and 0%; the “% Inhibition Relative to Negative Control, 3A4” value is 99% and 100%. Further, the “% Compound Metabolized at 30 min, No Inhibitor” value in series [7] is 98% and 97%.
Turning to `CCOc1ccc(NC(C)=O)cc1` [Phenacitin], in series [3], the “% Compound Metabolized at 30 min, CYP1A2 Inhibitor” value is 3% and 1%; the “% Inhibition Relative to Negative Control, 1A2” value is 92% and 97%. In series [6], the “% Compound Metabolized at 30 min, CYP3A4 Inhibitor” value was determined as 23% and the “% Inhibition Relative to Negative Control, 3A4” value came to 36%. In addition, the “% Compound Metabolized at 30 min, No Inhibitor” value in series [7] is 36% and 31%.
